Drawing on patent EP4227307A1 (Genzyme Corporation, priority 2022, dated 2023), this text covers IC50 for 24 compounds.

SMILES strings stand for the structures. Where only a bound is given, the exact number is not on record here.

The target of this assay is T1, human recombinant 6His-Nterm SHP2 full-length (Thr2-Arg593) (Homo sapiens, UniProt Q06124).
T1 construct: 6His-Nterm SHP2 full-length (Thr2-Arg593, R&D system); 6His (N); purchased R&D system
T1 sequence (Q06124 2-593): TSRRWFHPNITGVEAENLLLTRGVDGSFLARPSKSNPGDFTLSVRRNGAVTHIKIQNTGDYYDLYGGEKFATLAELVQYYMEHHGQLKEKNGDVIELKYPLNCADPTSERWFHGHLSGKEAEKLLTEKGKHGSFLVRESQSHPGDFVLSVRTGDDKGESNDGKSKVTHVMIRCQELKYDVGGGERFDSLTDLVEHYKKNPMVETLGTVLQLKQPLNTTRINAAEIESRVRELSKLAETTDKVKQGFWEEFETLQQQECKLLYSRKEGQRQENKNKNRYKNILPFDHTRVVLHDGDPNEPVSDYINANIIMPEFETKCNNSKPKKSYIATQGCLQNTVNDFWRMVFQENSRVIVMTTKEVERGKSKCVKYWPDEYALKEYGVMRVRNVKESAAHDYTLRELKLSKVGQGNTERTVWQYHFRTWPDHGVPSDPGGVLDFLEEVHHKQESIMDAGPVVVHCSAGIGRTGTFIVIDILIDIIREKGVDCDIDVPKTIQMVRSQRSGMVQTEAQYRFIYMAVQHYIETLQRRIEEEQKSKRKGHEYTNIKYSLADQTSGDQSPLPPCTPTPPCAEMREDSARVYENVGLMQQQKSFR
The assay is described as follows: SHP2 Phosphatase Assay (DiFMUP fluorescence). It counts as biochemical. The settings on record: SHP2 0.2 nM pre-incubated with 100 nM bi-phosphorylated activating peptide; compound 1000-0.05 nM, 30 min pre-incubation; DiFMUP 20 µM, 45 min, room temperature; 10-concentration dose-response. The method, boiled down: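 SHP2 (0.2 nM) preactivated ≥10 min with 100 nM bis-phosphorylated peptide, then 30 min with compound (10 concentrations, 1000–0.05 nM) at room temperature, pH 7.2 HEPES buffer with DTT. DiFMUP (20 µM, added solution) reacted 45 min, pervanadate-stopped; fluorescence 350/450 nm. IC50 by 4-parameter logistic fit.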
For `Cc1cccc(-c2c(C)nc(N3CCC4(CC3)Cc3ncccc3[C@H]4N)c3ccnn23)c1C` [Compound 164, (5S)-1'-[7-(2,3-dimethylphenyl)-6-methyl-pyrazolo[1,5-a]pyrazin-4-yl]spiro[5,7-dihydrocyclopenta[b]pyridine-6,4'-piperidine]-5-amine], the IC50 – broadly, the concentration that inhibits the measured activity by half – was found to be 7 nM.
For `Cc1nc(N2CCC3(CC2)Cc2ncccc2[C@H]3N)c2ccnn2c1-c1cncnc1` [Compound 165, (5S)-1'-(6-methyl-7-pyrimidin-5-yl-pyrazolo[1,5-a]pyrazin-4-yl)spiro[5,7-dihydrocyclopenta[b]pyridine-6,4'-piperidine]-5-amine] the value was 370 nM; for `Cc1cccc(-c2c(C)nc(N3CCC4(CC3)Cc3ncccc3[C@H]4N)c3ccnn23)c1F` [Compound 166, (5S)-1'-[7-(2-fluoro-3-methyl-phenyl)-6-methyl-pyrazolo[1,5-a]pyrazin-4-yl]spiro[5,7-dihydrocyclopenta[b]pyridine-6,4'-piperidine]-5-amine], 7 nM; for `Cc1nc(N2CCC3(CC2)Cc2ncccc2[C@H]3N)c2ccnn2c1-c1ccc2c(c1)CCCO2` [Compound 167, (5S)-1'-(7-chroman-6-yl-6-methyl-pyrazolo[1,5-a]pyrazin-4-yl)spiro[5,7-dihydrocyclopenta[b]pyridine-6,4'-piperidine]-5-amine], 9 nM.
Consider `CNc1cc(-c2c(C)nc(N3CCC4(CC3)Cc3ncccc3[C@H]4N)c3ccnn23)ccn1` [Compound 168, (5S)-1'-[6-methyl-7-[2-(methylamino)-4-pyridyl]pyrazolo[1,5-a]pyrazin-4-yl]spiro[5,7-dihydrocyclopenta[b]pyridine-6,4'-piperidine]-5-amine], for which the IC50 stood at 30 nM.
`Cc1nc(N2CCC3(CC2)Cc2ncccc2[C@H]3N)c2ccnn2c1-c1ccc2cnccc2c1` [Compound 169, (5S)-1'-[7-(6-isoquinolyl)-6-methyl-pyrazolo[1,5-a]pyrazin-4-yl]spiro[5,7-dihydrocyclopenta[b]pyridine-6,4'-piperidine]-5-amine]: the IC50 was 16 nM.
`Cc1nc(N2CCC3(CC2)Cc2ncccc2[C@H]3N)c2ccnn2c1-c1ccc2scnc2c1` [Compound 170, (5S)-1'-[7-(1,3-benzothiazol-5-yl)-6-methyl-pyrazolo[1,5-a]pyrazin-4-yl]spiro[5,7-dihydrocyclopenta[b]pyridine-6,4'-piperidine]-5-amine]: the IC50 was 11 nM.
For `Cc1nc(N2CCC3(CC2)Cc2ncccc2[C@H]3N)c2ccnn2c1-c1ccc2c(c1)CCN2C` [Compound 171, (5S)-1'-[6-methyl-7-(1-methylindolin-5-yl)pyrazolo[1,5-a]pyrazin-4-yl]spiro[5,7-dihydrocyclopenta[b]pyridine-6,4'-piperidine]-5-amine], the IC50 is 20 nM.
In the case of `Cc1nc(N2CCC3(CC2)Cc2ncccc2[C@H]3N)c2ccnn2c1-c1cc(C(=O)N(C)C)ccc1F` [Compound 172, 4-fluoro-N,N-dimethyl-3-[6-methyl-4-[(5S)-5-aminospiro[5,7-dihydrocyclopenta[b]pyridine-6,4'-piperidine]-1'-yl]pyrazolo[1,5-a]pyrazin-7-yl]benzamide], the IC50 was above 1000 nM.
Regarding `COc1ccc(Cl)c(-c2c(C)nc(N3CCC4(CC3)Cc3ncccc3[C@H]4N)c3ccnn23)c1` [Compound 173, (5S)-1'-[7-(2-chloro-5-methoxy-phenyl)-6-methyl-pyrazolo[1,5-a]pyrazin-4-yl]spiro[5,7-dihydrocyclopenta[b]pyridine-6,4'-piperidine]-5-amine], the IC50 was 15 nM.
For `Cc1nc(N2CCC3(CC2)Cc2ncccc2[C@H]3N)c2ccnn2c1-c1cccc(C(F)(F)F)c1F` [Compound 174, (5S)-1'-[7-[2-fluoro-3-(trifluoromethyl)phenyl] -6-methyl-pyrazolo[1,5-a]pyrazin-4-yl]spiro[5,7-dihydrocyclopenta[b]pyridine-6,4'-piperidine]-5-amine], the IC50 was 5 nM.
For `COc1ccc(-c2c(C)nc(N3CCC4(CC3)Cc3ncccc3[C@H]4N)c3ccnn23)c(F)c1F` [Compound 175, (5 S)-1'-[7-(2,3-difluoro-4-methoxy-phenyl)-6-methyl-pyrazolo[1,5-a]pyrazin-4-yl]spiro[5,7-dihydrocyclopenta[b]pyridine-6,4'-piperidine]-5-amine] the value was 4 nM; for `Cc1nc(N2CCC3(CC2)Cc2ncccc2[C@H]3N)c2ccnn2c1-c1ccc(N(C)C)nc1` [Compound 176, (5S)-1'-[7-[6-(dimethylamino)-3-pyridyl]-6-methyl-pyrazolo [1 ,5-a]pyrazin-4-yl]spiro[5,7-dihydrocyclopenta[b]pyridine-6,4'-piperidine]-5-amine], 6 nM; for `Cc1nc(N2CCC3(CC2)Cc2ncccc2[C@H]3N)c2ccnn2c1-c1ccc(N)nc1` [Compound 177, (5S)-1'-[7-(6-amino-3-pyridyl)-6-methyl-pyrazolo[1,5-a]pyrazin-4-yl]spiro[5,7-dihydrocyclopenta[b]pyridine-6,4'-piperidine]-5-amine], 27 nM.
On to `Cc1nc(N2CCC3(CC2)Cc2ncccc2[C@H]3N)c2ccnn2c1-c1cccc2c1OCC2` [Compound 178, (5S)-1'-[7-(2,3-dihydrobenzofuran-7-yl)-6-methyl-pyrazolo[1,5-a]pyrazin-4-yl]spiro[5,7-dihydrocyclopenta[b]pyridine-6,4'-piperidine]-5-amine], for which the IC50 came to 14 nM.
As to `Cc1nc(N2CCC3(CC2)Cc2ncccc2[C@H]3N)c2ccnn2c1-c1cncc(F)c1` [Compound 179, (5S)-1'-[7-(5-fluoro-3-pyridyl)-6-methyl-pyrazolo[1,5-a]pyrazin-4-yl]spiro[5,7-dihydrocyclopenta[b]pyridine-6,4'-piperidine]-5-amine], the IC50 was found to be 18 nM.
On to `Cc1nc(N2CCC3(CC2)Cc2ncccc2[C@H]3N)c2ccnn2c1-c1cccc(F)c1C#N` [Compound 180, 2-fluoro-6-[6-methyl-4-[(5S)-5-aminospiro[5,7-dihydrocyclopenta[b]pyridine-6,4'-piperidine]-1'-yl]pyrazolo[1,5-a]pyrazin-7-yl]benzonitrile], for which the IC50 was found to be 39 nM.
`Cc1nc(N2CCC3(CC2)Cc2ncccc2[C@H]3N)c2ccnn2c1-c1cccc(C#N)c1F` [Compound 181, 2-fluoro-3-[6-methyl-4-[(5S)-5-aminospiro[5,7-dihydrocyclopenta[b]pyridine-6,4'-piperidine]-1'-yl]pyrazolo[1,5-a]pyrazin-7-yl]benzonitrile]: the IC50 turned out to be 5 nM.
As for `Cc1nc(N2CCC3(CC2)Cc2ncccc2[C@H]3N)c2ccnn2c1-c1cccc2c1ccn2C` [Compound 182, (5S)-1'-[6-methyl-7-(1-methylindol-4-yl)pyrazolo[1,5-a]pyrazin-4-yl]spiro[5,7-dihydrocyclopenta[b]pyridine-6,4'-piperidine]-5-amine], the IC50 was determined as 23 nM.
Consider `Cc1nc(N2CCC3(CC2)Cc2ncccc2[C@H]3N)c2ccnn2c1-c1ccc2c(c1)OCCO2` [Compound 183, (5S)-1'-[7-(2,3-dihydro-1,4-benzodioxin-6-yl)-6-methyl-pyrazolo[1,5-a]pyrazin-4-yl]spiro[5,7-dihydrocyclopenta[b]pyridine-6,4'-piperidine]-5-amine], for which the IC50 was determined as 3 nM.
As to `Cc1nc(N2CCC3(CC2)Cc2ncccc2[C@H]3N)c2ccnn2c1-c1ccc2ccn(C)c2c1` [Compound 184, (5S)-1'-[6-methyl-7-(1-methylindol-6-yl)pyrazolo[1,5-a]pyrazin-4-yl]spiro[5,7-dihydrocyclopenta[b]pyridine-6,4'-piperidine]-5-amine], the concentration for half-maximal inhibition (IC50) amounted to 11 nM.
Then `COc1ccc(-c2c(C)nc(N3CCC4(CC3)Cc3ncccc3[C@H]4N)c3ccnn23)c(F)c1` [Compound 185, (5S)-1'-[7-(2-fluoro-4-methoxy-phenyl)-6-methyl-pyrazolo[1,5-a]pyrazin-4-yl]spiro[5,7-dihydrocyclopenta[b]pyridine-6,4'-piperidine]-5-amine], with 7 nM; and `Cc1ccc(-c2c(C)nc(N3CCC4(CC3)Cc3ncccc3[C@H]4N)c3ccnn23)c(F)c1` [Compound 186, (5S)-1'-[7-(2-fluoro-4-methyl-phenyl)-6-methyl-pyrazolo[1,5-a]pyrazin-4-yl]spiro[5,7-dihydrocyclopenta[b]pyridine-6,4'-piperidine]-5-amine], with 2 nM; and `Cc1nc(N2CCC3(CC2)Cc2ncccc2[C@H]3N)c2ccnn2c1-c1cc(C(F)(F)F)ccc1F` [Compound 187, (5S)-1'-[7-[2-fluoro-5-(trifluoromethyl)phenyl] -6-methyl-pyrazolo[1,5-a]pyrazin-4-yl]spiro[5,7-dihydrocyclopenta[b]pyridine-6,4'-piperidine]-5-amine], with 250 nM.
